Here are results for two compounds from publication doi:10.1101/2024.07.04.602053v1, “Evidence for low affinity of GABA at the vesicular monoamine transporter VMAT2 – implications for transmitter co-release from dopamine neurons” (biorxiv, 2024).

This test addresses T1, human VMAT2-eGFP (HEK-293-VMAT2:eGFP) (Homo sapiens, UniProt Q05940).
T1 construct: gene SLC18A2
Description: inhibition of [3H]dopamine uptake, digitonin-permeabilized cells. Type of test: cell-based.

T1 sequence (Q05940 whole entry): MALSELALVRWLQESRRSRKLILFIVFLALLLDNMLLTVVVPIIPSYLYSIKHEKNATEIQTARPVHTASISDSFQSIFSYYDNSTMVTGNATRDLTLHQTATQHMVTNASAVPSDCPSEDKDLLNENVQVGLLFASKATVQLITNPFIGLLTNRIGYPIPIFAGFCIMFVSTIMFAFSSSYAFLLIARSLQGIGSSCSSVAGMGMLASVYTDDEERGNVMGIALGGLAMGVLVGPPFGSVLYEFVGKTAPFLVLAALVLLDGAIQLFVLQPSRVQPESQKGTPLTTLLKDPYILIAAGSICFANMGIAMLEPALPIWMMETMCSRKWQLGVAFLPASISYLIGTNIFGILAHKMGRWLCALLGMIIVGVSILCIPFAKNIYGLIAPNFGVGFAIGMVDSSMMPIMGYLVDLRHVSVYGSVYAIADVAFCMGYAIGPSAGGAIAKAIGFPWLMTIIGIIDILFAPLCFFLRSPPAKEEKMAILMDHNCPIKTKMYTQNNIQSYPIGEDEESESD

A word on the IC50: it is the concentration needed to halve the response being measured. Low readings indicate higher potency, high ones lower potency. In turn, `NCCc1ccc(O)c(O)c1` [dopamine] showed a half-inhibitory concentration (IC50) of 4900 nM.

For the compound `COc1cc2c(cc1OC)C1CC(=O)C(CC(C)C)CN1CC2` (centres unmarked) [tetrabenazine], the IC50 stood at 28.8 nM.
